Test results from the supplement of paper PMC12317010.
Structures can show the parent of a compound that is named as a salt.

Assay: collision cross section in nitrogen (drift tube, single-field); higher = larger gas-phase ion size
[1] = ion type: [M+H], ion source: APCI, ion mode: Positive
[2] = ion type: [M+H], ion source: ESI, ion mode: Positive
[3] = ion type: [M+Na], ion source: ESI, ion mode: Positive
[4] = ion type: [M-H], ion source: ESI, ion mode: Negative
[5] = ion type: [M+], ion source: APCI, ion mode: Positive
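Further: chemical standards at 10 µM analysed by drift tube IMS-QTOF MS in about 3.95 torr nitrogen, mean of duplicate injections differing ≤1%, mass error below 10 ppm.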

## O=[N+]([O-])c1cc(N(CCO)CCO)ccc1NCCO [HC Blue 2]
[1]
  collision cross section in nitrogen: 171.3 Å²
[2]
  collision cross section in nitrogen: 171.1 Å²
[3]
  collision cross section in nitrogen: 177.5 Å²

## Nc1ccc(NCCO)c([N+](=O)[O-])c1 [HC Red 3]
[1]
  collision cross section in nitrogen: 141.6 Å²
[2]
  collision cross section in nitrogen: 142.2 Å²

## CCN(CC)C(=O)c1cc(S(=O)(=O)Cc2ccccc2)c(N2CCC(c3ccccc3)CC2)cc1N(CC)CCN(C)C [HMR1171 trifluoroacetate (1:1)]
[1]
  collision cross section in nitrogen: 249.1 Å²
[2]
  collision cross section in nitrogen: 249.1 Å²
[3]
  collision cross section in nitrogen: 251.8 Å²
[4]
  collision cross section in nitrogen: 250 Å²

## OC12N=C(c3ccccc3)SC1Cc1cc(Cl)ccc12 (configuration not stated) [HMR1426]
[1]
  collision cross section in nitrogen: 167.8 Å²
[2]
  collision cross section in nitrogen: 167.9 Å²

## CC(C)(C)N(NC(=O)c1ccc(Cl)cc1)C(=O)c1ccccc1 [Halofenozide]
[3]
  collision cross section in nitrogen: 188.3 Å²
[4]
  collision cross section in nitrogen: 178.2 Å²

## O=C(CCCN1CCC(O)(c2ccc(Cl)cc2)CC1)c1ccc(F)cc1 [Haloperidol]
[1]
  collision cross section in nitrogen: 195.1 Å²
[2]
  collision cross section in nitrogen: 195.1 Å²
[3]
  collision cross section in nitrogen: 200.2 Å²
[4]
  collision cross section in nitrogen: 190.2 Å²

## COC(=O)[C@@H](C)Oc1ccc(Oc2ncc(C(F)(F)F)cc2Cl)cc1 [Haloxyfop-P-methyl]
[2]
  collision cross section in nitrogen: 185.1 Å²
[3]
  collision cross section in nitrogen: 186.4 Å²

## COC(=O)C(C)Oc1ccc(Oc2ncc(C(F)(F)F)cc2Cl)cc1 (configuration not stated) [Haloxyfop-methyl]
[2]
  collision cross section in nitrogen: 184.4 Å²
[3]
  collision cross section in nitrogen: 185.6 Å²

## CC(Oc1ccc(Oc2ncc(C(F)(F)F)cc2Cl)cc1)C(=O)O (configuration not stated) [Haloxyfop]
[2]
  collision cross section in nitrogen: 180 Å²
[4]
  collision cross section in nitrogen: 190 Å²

## CCCCCCC(=O)O [Heptanoic acid]
[4]
  collision cross section in nitrogen: 137.3 Å²

## CCCCCCCOC(C)=O [Heptyl acetate]
[4]
  collision cross section in nitrogen: 146.8 Å²

## COCN(COC)c1nc(N(COC)COC)nc(N(COC)COC)n1 [Hexa(methoxymethyl)melamine]
[3]
  collision cross section in nitrogen: 194.1 Å²

## Oc1c(Cl)cc(Cl)c(Cl)c1Cc1c(O)c(Cl)cc(Cl)c1Cl [Hexachlorophene]
[4]
  collision cross section in nitrogen: 174.4 Å²

## CCCCC(O)(Cn1cncn1)c1ccc(Cl)cc1Cl (configuration not stated) [Hexaconazole]
[1]
  collision cross section in nitrogen: 174.6 Å²
[2]
  collision cross section in nitrogen: 173.5 Å²
[3]
  collision cross section in nitrogen: 187 Å²

## CCCCCCCCCCCCCCCC(=O)O [Hexadecanoic acid]
[4]
  collision cross section in nitrogen: 169.2 Å²

## CCCCCCCCCCCCCCCC[N+](C)(C)C [Hexadecyltrimethylammonium bromide]
Ion source: APCI, ion mode: Positive, ion type: [M]+ (permanent cation)
  collision cross section in nitrogen: 193.1 Å²
Ion source: ESI, ion mode: Positive, ion type: [M]+ (permanent cation)
  collision cross section in nitrogen: 195.1 Å²

## C=CC(=O)N1CN(C(=O)C=C)CN(C(=O)C=C)C1 [Hexahydro-1,3,5-tris(1-oxoallyl)-1,3,5-triazine]
[3]
  collision cross section in nitrogen: 160.1 Å²

## CN(C)P(=O)(N(C)C)N(C)C [Hexamethylphosphoramide]
[1]
  collision cross section in nitrogen: 134.4 Å²
[2]
  collision cross section in nitrogen: 135.3 Å²
[3]
  collision cross section in nitrogen: 152.8 Å²

## O=C(OCCCCCCOC(=O)c1ccccc1)c1ccccc1 [Hexane-1,6-diyl dibenzoate]
[3]
  collision cross section in nitrogen: 189.8 Å²

## NNC(=O)CCCCC(=O)NN [Hexanedihydrazide]
[3]
  collision cross section in nitrogen: 141.5 Å²
[4]
  collision cross section in nitrogen: 138.4 Å²

## O=C(O)CCCCC(=O)O [Hexanedioic acid]
[4]
  collision cross section in nitrogen: 127.9 Å²

## CN(C)c1nc(=O)n(C2CCCCC2)c(=O)n1C [Hexazinone]
[1]
  collision cross section in nitrogen: 163 Å²
[2]
  collision cross section in nitrogen: 162.8 Å²
[3]
  collision cross section in nitrogen: 176.3 Å²

## CC[C@H](c1ccc(O)cc1)[C@@H](CC)c1ccc(O)cc1 [Hexestrol]
[4]
  collision cross section in nitrogen: 177.2 Å²

## CCCCCCOC(=O)CCC [Hexyl butyrate]
[4]
  collision cross section in nitrogen: 149.7 Å²

## CCCCCCOC(=O)CC [Hexyl propanoate]
[4]
  collision cross section in nitrogen: 146.3 Å²

## CCCCCCOC(=O)c1ccc(O)cc1 [Hexylparaben]
[4]
  collision cross section in nitrogen: 161.1 Å²

## CC1(C)CN=C(NN=C(C=Cc2ccc(C(F)(F)F)cc2)C=Cc2ccc(C(F)(F)F)cc2)NC1 [Hydramethylnon]
[1]
  collision cross section in nitrogen: 239.4 Å²
[2]
  collision cross section in nitrogen: 240.6 Å²
[3]
  collision cross section in nitrogen: 250.1 Å²
[5]
  collision cross section in nitrogen: 226.3 Å²
[4]
  collision cross section in nitrogen: 234.7 Å²

## O=C(O)CCc1ccccc1 [Hydrocinnamic acid]
[4]
  collision cross section in nitrogen: 139 Å²

## CC(C)(O)C(=O)Nc1ccc([N+](=O)[O-])c(C(F)(F)F)c1 [Hydroxyflutamide]
[4]
  collision cross section in nitrogen: 157.4 Å²

## O=S(O)CO [Hydroxymethanesulfinic acid monosodium salt dihydrate]
[4]
  collision cross section in nitrogen: 112.7 Å²

## OCCOCCN1CCN(C(c2ccccc2)c2ccc(Cl)cc2)CC1 (configuration not stated) [Hydroxyzine hydrochloride]
[1]
  collision cross section in nitrogen: 197.7 Å²
[2]
  collision cross section in nitrogen: 197.2 Å²
[3]
  collision cross section in nitrogen: 195.7 Å²

## CCC(C)OC(=O)N1CCCCC1CCO (configuration not stated) [Icaridin]
[3]
  collision cross section in nitrogen: 166.5 Å²

## O=P1(NCCCl)OCCCN1CCCl (configuration not stated) [Ifosfamide]
[1]
  collision cross section in nitrogen: 148.1 Å²
[2]
  collision cross section in nitrogen: 148.8 Å²
[3]
  collision cross section in nitrogen: 158.1 Å²

## CCCCCCCCCc1ccc(OCCOCCO)cc1 [Igepal CO-210]
[3]
  collision cross section in nitrogen: 191.3 Å²

## CC(=O)S[C@H](C(=O)N[C@H]1Cc2ccccc2[C@H]2CCC[C@@H](C(=O)O)N2C1=O)C(C)C [Ilepatril]
[1]
  collision cross section in nitrogen: 195.4 Å²
[2]
  collision cross section in nitrogen: 194.9 Å²
[3]
  collision cross section in nitrogen: 198.7 Å²
[4]
  collision cross section in nitrogen: 193.7 Å²

## C=CCOC(Cn1ccnc1)c1ccc(Cl)cc1Cl (configuration not stated) [Imazalil]
[1]
  collision cross section in nitrogen: 167.9 Å²
[2]
  collision cross section in nitrogen: 167.9 Å²

## COCc1cnc(C2=NC(C)(C(C)C)C(=O)N2)c(C(=O)O)c1 (configuration not stated) [Imazamox]
[1]
  collision cross section in nitrogen: 172.2 Å²
[2]
  collision cross section in nitrogen: 172.4 Å²
[3]
  collision cross section in nitrogen: 188.9 Å²
[4]
  collision cross section in nitrogen: 178.2 Å²

## Cc1cnc(C2=NC(=O)C(C)(C(C)C)N2)c(C(=O)O)c1 (configuration not stated) [Imazapic]
[1]
  collision cross section in nitrogen: 162.2 Å²
[2]
  collision cross section in nitrogen: 162.4 Å²
[3]
  collision cross section in nitrogen: 178.8 Å²
[4]
  collision cross section in nitrogen: 168.3 Å²

## CC(C)C1(C)N=C(c2ncccc2C(=O)O)NC1=O (configuration not stated) [Imazapyr]
[1]
  collision cross section in nitrogen: 156.5 Å²
[2]
  collision cross section in nitrogen: 156.7 Å²
[3]
  collision cross section in nitrogen: 173.1 Å²
[4]
  collision cross section in nitrogen: 161.8 Å²

## CC(C)C1(C)N=C(c2nc3ccccc3cc2C(=O)O)NC1=O (configuration not stated) [Imazaquin]
[1]
  collision cross section in nitrogen: 171.7 Å²
[2]
  collision cross section in nitrogen: 171.7 Å²
[3]
  collision cross section in nitrogen: 188.4 Å²
[4]
  collision cross section in nitrogen: 176.9 Å²

## O=[N+]([O-])/N=C1\NCCN1Cc1ccc(Cl)nc1 [Imidacloprid]
[2]
  collision cross section in nitrogen: 156 Å²
[3]
  collision cross section in nitrogen: 159.5 Å²
[4]
  collision cross section in nitrogen: 157.3 Å²

## O=C(NCNC(=O)NC1C(=O)NC(=O)N1CO)NC1C(=O)NC(=O)N1CO (configuration not stated) [Imidazolidinyl urea]
[3]
  collision cross section in nitrogen: 183.4 Å²

## CN(C)CCCN1c2ccccc2CCc2ccccc21 [Imipramine hydrochloride]
[1]
  collision cross section in nitrogen: 165.8 Å²
[2]
  collision cross section in nitrogen: 166 Å²
[3]
  collision cross section in nitrogen: 172.7 Å²

## CC1Cc2ccccc2N1NC(=O)c1ccc(Cl)c(S(N)(=O)=O)c1 (configuration not stated) [Indapamide]
[2]
  collision cross section in nitrogen: 187.6 Å²
[3]
  collision cross section in nitrogen: 195.9 Å²
[4]
  collision cross section in nitrogen: 186.6 Å²

## c1ccc2c(c1)-c1ccc3ccc4cccc5cc-2c1c3c45 [Indeno[1,2,3-cd]pyrene]
[5]
  collision cross section in nitrogen: 156.7 Å²

## CC(C)(C)NC(=O)[C@@H]1CN(Cc2cccnc2)CCN1C[C@@H](O)C[C@@H](Cc1ccccc1)C(=O)N[C@H]1c2ccccc2C[C@H]1O [Indinavir sulfate]
[1]
  collision cross section in nitrogen: 262.9 Å²
[2]
  collision cross section in nitrogen: 262.3 Å²
[3]
  collision cross section in nitrogen: 246.1 Å²

## O=C(O)CCCc1c[nH]c2ccccc12 [Indole-3-butyric acid]
[4]
  collision cross section in nitrogen: 154.8 Å²

## O=C(O)C(=O)Cc1c[nH]c2ccccc12 [Indole-3-pyruvic acid]
[1]
  collision cross section in nitrogen: 139.3 Å²
[4]
  collision cross section in nitrogen: 141.6 Å²

## c1ccc2[nH]ccc2c1 [Indole]
[4]
  collision cross section in nitrogen: 119.5 Å²

## c1ccc2c(c1)CCN2 [Indoline]
[1]
  collision cross section in nitrogen: 120.8 Å²

## COc1ccc2c(c1)c(CC(=O)O)c(C)n2C(=O)c1ccc(Cl)cc1 [Indomethacin]
[2]
  collision cross section in nitrogen: 181.2 Å²
[3]
  collision cross section in nitrogen: 191.6 Å²

## COC(=O)N(C(=O)N1CO[C@@]2(C(=O)OC)Cc3cc(Cl)ccc3C2=N1)c1ccc(OC(F)(F)F)cc1 [Indoxacarb]
[1]
  collision cross section in nitrogen: 206.6 Å²
[2]
  collision cross section in nitrogen: 205.7 Å²
[3]
  collision cross section in nitrogen: 220.4 Å²

## O=C(N[C@@H](Cc1ccccc1)[C@@H](O)C(=O)N1C[C@@H](O)[C@@H](O)C1)c1cc2cc(Cl)ccc2[nH]1 [Ingliforib]
[1]
  collision cross section in nitrogen: 215.9 Å²
[2]
  collision cross section in nitrogen: 216 Å²
[3]
  collision cross section in nitrogen: 220.4 Å²
[4]
  collision cross section in nitrogen: 206.2 Å²

## Oc1c(I)cc(I)c2cccnc12 [Iodoquinol]
[2]
  collision cross section in nitrogen: 146.4 Å²
[4]
  collision cross section in nitrogen: 147.3 Å²

## COC(=O)c1ccc(I)cc1S(=O)(=O)NC(=O)Nc1nc(C)nc(OC)n1 [Iodosulfuron methyl ester sodium salt]
[1]
  collision cross section in nitrogen: 194.5 Å²
[2]
  collision cross section in nitrogen: 194.2 Å²
[3]
  collision cross section in nitrogen: 195.8 Å²
[4]
  collision cross section in nitrogen: 196.1 Å²

## CCC(Cc1c(I)cc(I)c(N)c1I)C(=O)O (configuration not stated) [Iopanoic acid]
[5]
  collision cross section in nitrogen: 171.5 Å²

## CC(C)C1CCC(Cc2ccc(Cl)cc2)C1(O)Cn1cncn1 (configuration not stated) [Ipconazole]
[1]
  collision cross section in nitrogen: 173.8 Å²
[2]
  collision cross section in nitrogen: 173.8 Å²
[3]
  collision cross section in nitrogen: 179.6 Å²

## Cc1ccc(C(C)NC(=O)[C@@H](NC(=O)OC(C)C)C(C)C)cc1 (some centres not stated) [Iprovalicarb]
[1]
  collision cross section in nitrogen: 184.2 Å²
[3]
  collision cross section in nitrogen: 183.5 Å²

## CC(C)(C)c1cc(CCC(=O)OCC(COC(=O)CCc2cc(C(C)(C)C)c(O)c(C(C)(C)C)c2)(COC(=O)CCc2cc(C(C)(C)C)c(O)c(C(C)(C)C)c2)COC(=O)CCc2cc(C(C)(C)C)c(O)c(C(C)(C)C)c2)cc(C(C)(C)C)c1O [Irganox 1010]
[3]
  collision cross section in nitrogen: 354.9 Å²
[5]
  collision cross section in nitrogen: 355.6 Å²
[4]
  collision cross section in nitrogen: 354.9 Å²

## CCOP(=S)(OCC)Oc1nc(Cl)n(C(C)C)n1 [Isazofos]
[2]
  collision cross section in nitrogen: 166.9 Å²
[3]
  collision cross section in nitrogen: 174.8 Å²

## CCC(=O)O[C@H]1C[C@@H]2CC[C@@]1(C)C2(C)C [Isobornyl propanoate]
[4]
  collision cross section in nitrogen: 155.8 Å²
